For one test, the target named is T1, Chymase (Homo sapiens, UniProt P23946).
T1 sequence (P23946 whole entry): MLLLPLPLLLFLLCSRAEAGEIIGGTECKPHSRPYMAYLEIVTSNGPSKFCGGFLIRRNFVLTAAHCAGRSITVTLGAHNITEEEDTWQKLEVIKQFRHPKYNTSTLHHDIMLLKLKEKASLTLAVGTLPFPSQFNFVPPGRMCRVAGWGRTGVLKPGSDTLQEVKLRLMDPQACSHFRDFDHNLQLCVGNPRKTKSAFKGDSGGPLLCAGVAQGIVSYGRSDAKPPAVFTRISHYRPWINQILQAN
As to the kind of experiment: Inhibitory activity against human serine protease chymase.

In a further test the target is Prothrombin (Homo sapiens, UniProt P00734). As to the kind of experiment: The compound was evaluated for the inhibitory activity against thrombin.
For the next test, the target named is Plasminogen (Homo sapiens, UniProt P00747). As to the kind of experiment: The compound was evaluated for the inhibitory activity against plasmin.
In another test the target is T2, Neutrophil elastase (Homo sapiens, UniProt P08246).
T2 sequence (P08246 whole entry): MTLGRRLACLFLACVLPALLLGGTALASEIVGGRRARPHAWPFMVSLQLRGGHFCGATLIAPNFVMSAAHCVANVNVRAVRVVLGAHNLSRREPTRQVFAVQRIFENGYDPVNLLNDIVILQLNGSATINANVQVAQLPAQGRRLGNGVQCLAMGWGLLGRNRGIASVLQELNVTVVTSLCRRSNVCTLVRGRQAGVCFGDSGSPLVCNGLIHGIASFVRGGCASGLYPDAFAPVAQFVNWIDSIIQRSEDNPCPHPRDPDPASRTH
As to the kind of experiment: The compound was evaluated for the inhibitory activity against human neutrophil elastase.

A further test concerns the target T3, Cathepsin G (Homo sapiens, UniProt P08311).
T3 sequence (P08311 whole entry): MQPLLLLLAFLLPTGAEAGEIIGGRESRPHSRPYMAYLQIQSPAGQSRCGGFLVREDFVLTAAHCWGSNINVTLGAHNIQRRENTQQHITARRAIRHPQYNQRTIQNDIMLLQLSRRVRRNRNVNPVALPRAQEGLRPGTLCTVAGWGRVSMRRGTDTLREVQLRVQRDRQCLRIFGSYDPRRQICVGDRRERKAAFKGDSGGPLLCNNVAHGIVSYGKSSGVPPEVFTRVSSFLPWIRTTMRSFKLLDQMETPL
The test is described as follows: The compound was evaluated for the inhibitory activity against cathepsin G.

The next test has as its target T4, Serine protease 1 (Bos taurus, UniProt P00760).
T4 sequence (P00760 whole entry): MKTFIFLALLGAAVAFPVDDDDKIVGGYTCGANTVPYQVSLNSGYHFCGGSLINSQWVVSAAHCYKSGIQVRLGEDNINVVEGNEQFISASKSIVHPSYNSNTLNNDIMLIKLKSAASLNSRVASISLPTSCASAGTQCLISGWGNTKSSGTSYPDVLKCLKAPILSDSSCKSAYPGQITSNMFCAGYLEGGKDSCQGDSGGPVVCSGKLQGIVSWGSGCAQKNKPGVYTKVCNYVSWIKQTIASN
The test is described as follows: The compound was evaluated for the inhibitory activity against trypsin.

Plasminogen, sequence (P00747 97-580 limits assumed): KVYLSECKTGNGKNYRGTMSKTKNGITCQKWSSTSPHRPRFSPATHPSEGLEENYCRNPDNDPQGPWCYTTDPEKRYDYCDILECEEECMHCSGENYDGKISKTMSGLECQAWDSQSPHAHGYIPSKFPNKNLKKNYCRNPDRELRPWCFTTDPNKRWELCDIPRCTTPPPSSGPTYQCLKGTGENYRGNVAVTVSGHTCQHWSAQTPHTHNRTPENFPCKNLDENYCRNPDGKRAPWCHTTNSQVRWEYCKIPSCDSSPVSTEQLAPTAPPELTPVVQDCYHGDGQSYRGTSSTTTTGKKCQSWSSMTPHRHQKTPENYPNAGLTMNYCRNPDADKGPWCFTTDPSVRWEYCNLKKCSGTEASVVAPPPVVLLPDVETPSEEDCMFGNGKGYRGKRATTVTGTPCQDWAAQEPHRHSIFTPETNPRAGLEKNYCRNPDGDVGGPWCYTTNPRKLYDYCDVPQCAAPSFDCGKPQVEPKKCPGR
Plasminogen, sequence (P00747 581-810 limits assumed): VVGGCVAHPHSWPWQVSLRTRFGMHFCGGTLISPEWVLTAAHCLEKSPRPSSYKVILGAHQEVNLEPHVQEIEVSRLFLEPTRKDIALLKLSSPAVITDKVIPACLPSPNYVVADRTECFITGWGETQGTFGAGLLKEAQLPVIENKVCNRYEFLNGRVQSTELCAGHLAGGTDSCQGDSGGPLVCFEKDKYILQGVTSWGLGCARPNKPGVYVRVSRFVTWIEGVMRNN

Regarding `CO[C@@]1(NC(=O)Cc2ccc(-c3ccccc3)cc2)C(=O)N2C(C(=O)OC(c3ccccc3)c3ccccc3)=C(CSc3nnnn3C)CO[C@@H]21`, at Chymase, the IC50 (in general, the point on the concentration scale where inhibition reaches its midpoint) was more than 10000 nM.
`CO[C@@]1(NC(=O)Cc2ccc(Br)cc2)C(=O)N2C(C(=O)OC(c3ccccc3)c3ccccc3)=C(CSc3nnnn3C)CO[C@@H]21`: the IC50 against Chymase worked out at 6800 nM.
Consider `COc1ccc(C(=O)N[C@]2(OC)C(=O)N3C(C(=O)OC(c4ccccc4)c4ccccc4)=C(CSc4nnnn4C)CO[C@@H]32)cc1`, for which, at Chymase, the IC50 was more than 10000 nM.
`COc1ccccc1C(=O)N[C@]1(OC)C(=O)N2C(C(=O)OCc3cccc(C)c3)=C(CSc3nncn3CC(=O)O)CO[C@@H]21`: the IC50 against Prothrombin was 430 nM; at Plasminogen, more than 10000 nM; at Neutrophil elastase, more than 10000 nM; against Cathepsin G, 230 nM; on Serine protease 1, 440 nM.
`CO[C@@]1(NC(=O)Cc2ccc(O)cc2)C(=O)N2C(C(=O)OCc3cccc(C)c3)=C(CCl)CO[C@@H]21` returned an IC50 against Chymase of 150 nM.
Same read-out and setting: to `CO[C@@]1(NC(=O)Cc2ccc(O)cc2)C(=O)N2C(C(=O)OCc3cccc(C)c3)=C(CSc3nncn3C)CO[C@@H]21` belongs 4000 nM; to `CO[C@@]1(NC(=O)Cc2ccc(O)cc2)C(=O)N2C(C(=O)N3CCCC3)=C(CSc3nnnn3C)CO[C@@H]21`, more than 10000 nM; to `CO[C@@]1(NC(=O)Cc2ccc(O)cc2)C(=O)N2C(C(=O)OCc3cccc(C)c3)=C(C)CO[C@@H]21`, more than 10000 nM.
Still for that read-out and setting: to `CO[C@@]1(NC(=O)c2ccccc2Cl)C(=O)N2C(C(=O)OC(c3ccccc3)c3ccccc3)=C(CSc3nnnn3C)CO[C@@H]21` belongs 1700 nM.

(Values after ChEMBL document CHEMBL1133144, “Synthesis and structure-activity relationships of a new class of 1-oxacephem-based human chymase inhibitors” (Bioorg Med Chem Lett, 2000).)
